Measurements as given in patent US20220323532A1, “COMPOSITIONS COMPRISING PLANT-DERIVED EXOSOME-LIKE NANOVESICLES OR EXOSOMES AND METHODS OF USE THEREOF” (priority 2021, published 2022).
Read-outs that look alike come from different tables or passages of the source.

Tests used:
skin of human subjects [1] = assay: Primary skin irritation evaluation, single 48 hour patch; format: in vivo; conditions: single application, patch 48 hours; 55 subjects; positive control
Experimental: Patches remain in place for 48 hours. […] Trained skin grading laboratory personnel removed the patch and evaluated the test sites.
Whenever feasible, the same individual does the scoring of all the subjects throughout the study and is blinded to the treatment assignments and any previous scores. • 0 no reaction (negative) • 1 erythema throughout at least ¾ of patch area • 2 erythema and induration throughout at least ¾ of patch area • 3 erythema, induration and vesicles • 4 erythema, induration and bullae • D Site discontinued • Dc Subject discontinued • DcI Subject discontinued per Investigator

skin of human subjects [2] = conditions: repeat insult patch test; positive control
Text: To determine the irritation and sensitization (contact allergy) potential of a test material (high growth serum comprising ashwagandha exosomes/ELNs 1×10^9 or 1×10^10 after repeated application to the skin of human subjects. […]
This procedure was repeated until a series of nine (9) consecutive, 24-hour exposures had been made three (3) times a week for three (3) consecutive weeks. Prior to each reapplication, the test sites evaluated by trained laboratory personnel. […] Test sites were evaluated by trained laboratory personnel 48 and 96 hours after application. In the event of an adverse reaction, the area of erythema and edema were measured. […] Subjects were instructed to report any delayed reactions that might occur after the final reading. […]

CCCCCCCCCCCCOS(=O)(=O)[O-].[Na+] [2.0% Sodium Lauryl Sulfate Solution, Sodium Lauryl Sulfate]
subjects with a Grade 1 reaction (skin of human subjects [1]): 6 subjects | subjects with a Grade 1 reaction (skin of human subjects [2]): 6 subjects
